Measurements as given in PMC6979384, “Characterization of the plant homeodomain (PHD) reader family for their histone tail interactions” (Epigenetics & Chromatin, 2020).

What was measured:
Test in all cases: Histone peptide microarray
Assay type in all cases: binding, human
[1] = test system: ING2; conditions: GST-tagged ING2
Text: (§1) To more comprehensively define the histone interactions of the 31 PHD readers identified from the domain microarray analyses, we probed each on an alternate microarray platform containing a library of 293 synthetic histone peptides with single or combinatorial PTMs (Additional file 2: Figure S4 and Additional file 3: Table S2).
(§2) The 31 GST-tagged PHD readers identified in the PHD finger domain array were expressed and purified as previously. Histone peptide arrays and peptide pulldown assays were conducted as recently described (specifically, the optimized protocol from Petell et al. for the former).
(§3) Supplementary file 13072_2020_328_MOESM3_ESM.xlsx: Additional file 3: Table S2. […] Excel Tab Peptide List is a compiled list of the entire 293 histone peptide library with amino acid sequence ranges. […] Each number corresponds to the peptide number designated in Peptide List. Excel Tab Average Signals is a compiled set of binding data: chromatin reader at 0.5 μM vs. entire 293 peptide library. Data is presented as the average and standard deviation of 4 replicates. The average signals are colored to indicate signal intensity with green being strong and white being weak/low. […] Key: red= stronger relative binding; blue = weaker relative binding. Excel Tab Array info summary is a table summarizing the domains, sequence coverage, array signal range, and noise for each of the GST-tagged readers assayed on the peptide microarrays.

[2] = test system: KDM4C (TTP)
Text: as §1, §2, §3

[3] = test system: ING1; conditions: GST-tagged ING1
Text: as §1, §2, §3

[4] = test system: TRIM66 (PB)
Text: as §1, §2, §3

[5] = test system: ING3; conditions: GST-tagged ING3
Text: as §1, §2, §3

[6] = test system: ING5; conditions: GST-tagged ING5
Text: as §1, §2, §3

[7] = test system: CHD5 (PCC)
Text: as §1, §2, §3

[8] = test system: PHRF1 (RP); conditions: GST-tagged PHRF1 (RP)
Text: as §1, §2, §3

[9] = test system: MORC3 (CW)
Text: as §1, §2, §3

[10] = test system: PHF2; conditions: GST-tagged PHF2
Text: as §1, §2, §3

[11] = test system: MLL5; conditions: GST-tagged MLL5
Text: as §1, §2, §3

[12] = test system: ING4; conditions: GST-tagged ING4
Text: as §1, §2, §3

[13] = test system: KDM5A (1); conditions: GST-tagged KDM5A (1)
Text: as §1, §2, §3

[14] = test system: CHD5 (PPCC)
Text: as §1, §2, §3

[15] = test system: KDM5A (3); conditions: GST-tagged KDM5A (3)
Text: as §1, §2, §3

[16] = test system: TAF3; conditions: GST-tagged TAF3
Text: as §1, §2, §3

[17] = test system: DPF2 (PPC2W2)
Text: as §1, §2, §3

[18] = test system: KDM5B (3); conditions: GST-tagged KDM5B (3)
Text: as §1, §2, §3

[19] = test system: SP140L; conditions: GST-tagged SP140L
Text: as §1, §2, §3

[20] = test system: PHF23; conditions: GST-tagged PHF23
Text: as §1, §2, §3

[21] = test system: RAG2; conditions: GST-tagged RAG2
Text: as §1, §2, §3

[22] = test system: PHF8; conditions: GST-tagged PHF8
Text: as §1, §2, §3

[23] = test system: AIRE (PP); conditions: GST-tagged AIRE (PP)
Text: as §1, §2, §3

[24] = test system: BAZ2B; conditions: GST-tagged BAZ2B
Text: as §1, §2, §3

[25] = test system: CHD4 (PPCC)
Text: as §1, §2, §3

[26] = test system: DIDO1; conditions: GST-tagged DIDO1
Text: as §1, §2, §3

[27] = test system: PHF13; conditions: GST-tagged PHF13
Text: as §1, §2, §3

[28] = test system: BPTF (PB)
Text: as §1, §2, §3

[29] = test system: PHF21A; conditions: GST-tagged PHF21A
Text: as §1, §2, §3

[30] = test system: KDM5B (1); conditions: GST-tagged KDM5B (1)
Text: as §1, §2, §3

[31] = test system: KDM7A; conditions: GST-tagged KDM7A
Text: as §1, §2, §3

[32] = sheet Array Heatmap, each array performed twice, total n = 4
[33] = sheet "Array Heatmap", arrays performed twice, total replicate number n = 4

With H3K4me3 + K9ac: H3 1-20 the “Array Heatmap signal (histone peptide microarray)” value [1, 32] was 0.8738, the “Array Heatmap signal (histone peptide microarray)” value ([2]; GST-tagged KDM4C (TTP = Tandem Tudor domain + PHD), sheet Array Heatmap, each array performed twice, total n = 4) was 0.5829 and the “Array Heatmap signal (histone peptide microarray)” value [3, 32] was 0.8182. The “Array Heatmap signal (histone peptide microarray)” value ([4]; GST-tagged TRIM66 (PB = PHD + Bromodomain), sheet Array Heatmap, each array performed twice, total n = 4) was 0.6603, the “Array Heatmap signal (histone peptide microarray)” value [5, 32] was 0.8165 and the “Array Heatmap signal (histone peptide microarray)” value [6, 32] was 0.4241. For the same substance, the “Array Heatmap signal (histone peptide microarray)” value ([7]; GST-tagged CHD5 (PCC = PHD + Dual Chromodomain), sheet Array Heatmap, each array performed twice, total n = 4) was 0.7875, the “Array Heatmap signal (histone peptide microarray)” value [8, 32] was 0.6133 and the “Array Heatmap signal (histone peptide microarray)” value ([9]; GST-tagged MORC3 (CW = CW-type Zn-finger), sheet Array Heatmap, each array performed twice, total n = 4) was 0.7776. The “Array Heatmap signal (histone peptide microarray)” value [10, 32] was 0.9106, the “Array Heatmap signal (histone peptide microarray)” value [11, 32] was 0.8313 and the “Array Heatmap signal (histone peptide microarray)” value [12, 32] was 0.6305. For the same substance, the “Array Heatmap signal (histone peptide microarray)” value [13, 32] was 0.468, the “Array Heatmap signal (histone peptide microarray)” value ([14]; GST-tagged CHD5 (PPCC = Dual PHD + Dual Chromodomain), sheet Array Heatmap, each array performed twice, total n = 4) was 0.5612 and the “Array Heatmap signal (histone peptide microarray)” value [15, 32] was 0.93. For the same substance, the “Array Heatmap signal (histone peptide microarray)” value [16, 32] was 0.7366, the “Array Heatmap signal (histone peptide microarray)” value ([17]; GST-tagged DPF2 (PPC2W2 = Dual PHD + C2W2-type Zn-finger), sheet Array Heatmap, each array performed twice, total n = 4) was 0.7108 and the “Array Heatmap signal (histone peptide microarray)” value [18, 32] was 0.7448. The “Array Heatmap signal (histone peptide microarray)” value [19, 32] was 0.3446, the “Array Heatmap signal (histone peptide microarray)” value [20, 32] was 0.8466 and the “Array Heatmap signal (histone peptide microarray)” value [21, 32] was 0.8735. For the same substance, the “Array Heatmap signal (histone peptide microarray)” value [22, 32] was 0.6077, the “Array Heatmap signal (histone peptide microarray)” value [23, 32] was 0.4068 and the “Array Heatmap signal (histone peptide microarray)” value [24, 32] was 0.4768. For the same substance, the “Array Heatmap signal (histone peptide microarray)” value ([25]; GST-tagged CHD4 (PPCC = Dual PHD + Dual Chromodomain), sheet Array Heatmap, each array performed twice, total n = 4) was 0.6185, the “Array Heatmap signal (histone peptide microarray)” value [26, 32] was 0.9386 and the “Array Heatmap signal (histone peptide microarray)” value [27, 32] was 0.7477. The “Array Heatmap signal (histone peptide microarray)” value ([28]; GST-tagged BPTF (PB = PHD + Bromodomain), sheet Array Heatmap, each array performed twice, total n = 4) was 0.6012, the “Array Heatmap signal (histone peptide microarray)” value [29, 32] was 0.4382 and the “Array Heatmap signal (histone peptide microarray)” value [30, 32] was 0.7027. For the same substance, the “Array Heatmap signal (histone peptide microarray)” value [31, 32] was 0.4556.

H3 30-49: H3 30-49 was tested, and the “Array Heatmap signal, ING2” value [1, 33] was 0.5897, the “Array Heatmap signal, KDM4C (TTP)” value ([2]; sheet "Array Heatmap", GST-tagged KDM4C (TTP), arrays performed twice, total replicate number n = 4) was 0.4088 and the “Array Heatmap signal, ING1” value [3, 33] was 0.4722. For the same substance, the “Array Heatmap signal, TRIM66 (PB)” value ([4]; sheet "Array Heatmap", GST-tagged TRIM66 (PB), arrays performed twice, total replicate number n = 4) was 0.5425, the “Array Heatmap signal, ING3” value [5, 33] was 0.4287 and the “Array Heatmap signal, ING5” value [6, 33] was 0.2813. For the same substance, the “Array Heatmap signal, CHD5 (PCC)” value ([7]; sheet "Array Heatmap", GST-tagged CHD5 (PCC), arrays performed twice, total replicate number n = 4) was 0.7179, the “Array Heatmap signal, PHRF1 (RP)” value [8, 33] was 0.3713 and the “Array Heatmap signal, MORC3 (CW)” value ([9]; sheet "Array Heatmap", GST-tagged MORC3 (CW), arrays performed twice, total replicate number n = 4) was 0.3313. The “Array Heatmap signal, PHF2” value [10, 33] was 0.4841, the “Array Heatmap signal, MLL5” value [11, 33] was 0.4726 and the “Array Heatmap signal, ING4” value [12, 33] was 0.3885. The “Array Heatmap signal, KDM5A (1)” value [13, 33] was 0.3827, the “Array Heatmap signal, CHD5 (PPCC)” value ([14]; sheet "Array Heatmap", GST-tagged CHD5 (PPCC), arrays performed twice, total replicate number n = 4) was 0.4615 and the “Array Heatmap signal, KDM5A (3)” value [15, 33] was 0.3525. The “Array Heatmap signal, TAF3” value [16, 33] was 0.2243, the “Array Heatmap signal, DPF2 (PPC2W2)” value ([17]; sheet "Array Heatmap", GST-tagged DPF2 (PPC2W2), arrays performed twice, total replicate number n = 4) was 0.6079 and the “Array Heatmap signal, KDM5B (3)” value [18, 33] was 0.3902. For the same substance, the “Array Heatmap signal, SP140L” value [19, 33] was 0.3311, the “Array Heatmap signal, PHF23” value [20, 33] was 0.4894 and the “Array Heatmap signal, RAG2” value [21, 33] was 0.2065. For the same substance, the “Array Heatmap signal, PHF8” value [22, 33] was 0.3204, the “Array Heatmap signal, AIRE (PP)” value [23, 33] was 0.3585 and the “Array Heatmap signal, BAZ2B” value [24, 33] was 0.368. The “Array Heatmap signal, CHD4 (PPCC)” value ([25]; sheet "Array Heatmap", GST-tagged CHD4 (PPCC), arrays performed twice, total replicate number n = 4) was 0.528, the “Array Heatmap signal, DIDO1” value [26, 33] was 0.6094 and the “Array Heatmap signal, PHF13” value [27, 33] was 0.5208. The “Array Heatmap signal, BPTF (PB)” value ([28]; sheet "Array Heatmap", GST-tagged BPTF (PB), arrays performed twice, total replicate number n = 4) was 0.2984, the “Array Heatmap signal, PHF21A” value [29, 33] was 0.4117 and the “Array Heatmap signal, KDM5B (1)” value [30, 33] was 0.5482. For the same substance, the “Array Heatmap signal, KDM7A” value [31, 33] was 0.3271.
